In US20240327408A1, “COMPOUNDS CONTAINING TETRAHYDRONAPHTHYRIDINONE OR TETRAHYDROPYRIDOPYRIMIDINONE SKELETON, PREPARATION METHOD THEREFOR AND PHARMACEUTICAL USE THEREOF” (CHINA PHARMACEUTICAL UNIVERSITY, priority 2021, published 2024):

Tests used:
[1] = system: MV4; 11 cells; experiment: inhibiting the growth of MV4; 11 cells; assay type: cell-based; details: Homo sapiens
[2] = target: T1, hClpP (Homo sapiens, UniProt Q16740); experiment: activating ClpP hydrolysis of FITC-casein (fluorescence kinetic detection); assay type: biochemical; details: hClpP 1 μM, FITC-Casein 4 μM, 37° C.
T1 construct: made in house
Summary of the method: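 hClpP at 1 μM final preincubated with compounds (assay-buffer dilutions 200 μM–2 nM, before mixing) 30 min at 37 °C, then 4 μM final FITC-casein added. Fluorescence read kinetically at 37 °C every 1 min for 15 min, duplicate wells.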

T1 sequence (Q16740 57-277): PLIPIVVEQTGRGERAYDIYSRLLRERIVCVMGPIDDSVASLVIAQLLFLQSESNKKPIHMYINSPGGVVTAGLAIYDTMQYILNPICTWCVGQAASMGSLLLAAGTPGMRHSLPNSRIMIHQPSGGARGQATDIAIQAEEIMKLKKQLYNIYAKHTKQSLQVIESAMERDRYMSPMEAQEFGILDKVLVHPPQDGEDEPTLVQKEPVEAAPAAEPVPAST

Structure (SMILES) | IC50 [1] | EC50 [2]
O=c1c2c(c3cccnc3n1Cc1ccc(Br)cc1)CCN(Cc1ccccc1)C2 [Compound I-54, 3-benzyl-6-(4-bromobenzyl)-2,3,4,6-tetrahydropyrido[3,4-c][1,8]naphthyridine-5-(1H)-one] | < 1000 nM | < 1000 nM
O=c1c2c(n3ccnc3n1Cc1ccc3c(c1)OCO3)CCN(Cc1cccc(Cl)c1)C2 [Compound I-147, 7-(3-chlorobenzyl)-4-([1,3]benzodioxol-5-ylmethyl)-6,7,8,9-tetrahydroimidazo[1,2-a]pyrido[3,4-e]pyrimidine-5(4H)-one] | 1000 to 10000 nM | 1000 to 10000 nM
O=c1c2c(c3scnc3n1Cc1ccc(C(F)(F)F)cc1)CCN(Cc1ccccc1)C2 [Compound I-105, 7-benzyl-4-(4-trifluoromethylbenzyl)-6,7,8,9-tetrahydrothiazolo[4,5-C][2,7]naphthyridine-5(4H)-one] | 1000 to 10000 nM | 1000 to 10000 nM
N#Cc1cccc(CN2CCc3c(c(=O)n(Cc4ccc(C(F)(F)F)cc4)c4nccn34)C2)c1 [Compound I-131, 7-(3-cyanobenzyl)-4-(4-trifluoromethylbenzyl)-6,7,8,9-tetrahydroimidazo[1,2-a]pyrido[3,4-e]pyrimidine-5(4H)-one] | < 1000 nM | < 1000 nM
Cc1cc(CN2CCc3c(c(=O)n(Cc4ccccc4)c4ncccc34)C2)n(C)n1 [Compound I-26, 6-benzyl-3-((1,3-dimethyl-1H-pyrazol-5-yl)methyl)-2,3,4,6-tetrahydropyrido[3,4-c][1,8]naphthyridine-5-(1H)-one] | 1000 to 10000 nM | 10000 to 100000 nM
O=c1c2c(n3ccnc3n1Cc1ccccc1)CCN(Cc1ccccc1)C2 [Compound I-107, 4,7-dibenzyl-6,7,8,9-tetrahydroimidazo[1,2-a]pyrido[3,4-e]pyrimidine-5(4H)-one] | 1000 to 10000 nM | 1000 to 10000 nM
O=c1c2c(c3cccnc3n1Cc1ccccn1)CCN(Cc1ccccc1)C2 [Compound I-61, 3-benzyl-6-(pyridin-2-ylmethyl)-2,3,4,6-tetrahydropyrido[3,4-c][1,8]naphthyridine-5-(1H)-one] | 1000 to 10000 nM | 10000 to 100000 nM
N#Cc1cccc(CN2CCc3c(c(=O)n(Cc4ccc5c(c4)OCO5)c4ncccc34)C2)c1 [Compound I-98, 6-([1,3]benzodioxol-5-ylmethyl)-3-(3-cyanobenzyl)-2,3,4,6-tetrahydropyrido[3,4-c][1,8]naphthyridine-5-(1H)-one] | 1000 to 10000 nM | 1000 to 10000 nM
Cc1ccc(Cn2c(=O)c3c(n4ccnc24)CCN(Cc2ccccc2)C3)cc1 [Compound I-132, 7-benzyl-4-(4-methylbenzyl)-6,7,8,9-tetrahydroimidazo[1,2-a]pyrido[3,4-e]pyrimidine-5(4H)-one] | < 1000 nM | < 1000 nM
O=c1c2c(n3cncc3n1Cc1ccc(C(F)(F)F)cc1)CCN(Cc1ccccc1)C2 [Compound I-164, 7-benzyl-4-(4-trifluoromethylbenzyl)-6,7,8,9-tetrahydroimidazo[1,5-a]pyrido[3,4-e]pyrimidine-5(4H)-one] | 1000 to 10000 nM | 1000 to 10000 nM
O=c1c2c(c3cccnc3n1Cc1ccc(F)cc1)CCN(Cc1cccc(Br)c1)C2 [Compound I-73, 3-(3-bromobenzyl)-6-(4-fluorobenzyl)-2,3,4,6-tetrahydropyrido[3,4-c][1,8]naphthyridine-5-(1H)-one] | < 1000 nM | < 1000 nM
O=c1c2c(c3cccnc3n1Cc1ccc(F)cc1)CCN(Cc1ccccc1)C2 [Compound I-52, 3-benzyl-6-(4-fluorobenzyl)-2,3,4,6-tetrahydropyrido[3,4-c][1,8]naphthyridine-5-(1H)-one] | < 1000 nM | < 1000 nM
O=c1c2c(c3cccnc3n1Cc1ccccc1)CCN(Cc1cccnc1)C2 [Compound I-28, 6-benzyl-3-(pyridin-3-ylmethyl)-2,3,4,6-tetrahydropyrido[3,4-c][1,8]naphthyridine-5-(1H)-one] | 1000 to 10000 nM | 10000 to 100000 nM
Cc1ccc(Cn2c(=O)c3c(c4cccnc42)CCN(Cc2cccc(C#N)c2)C3)cc1 [Compound I-91, 6-(4-methylbenzyl)-3-(3-cyanobenzyl)-2,3,4,6-tetrahydropyrido[3,4-c][1,8]naphthyridine-5-(1H)-one] | < 1000 nM | < 1000 nM
N#Cc1cccc(CN2CCc3c(c(=O)n(Cc4ccc(Cl)cc4)c4ncnn34)C2)c1 [Compound I-155, 4-(4-chlorobenzyl)-7-(3-cyanobenzyl)-6,7,8,9-tetrahydropyrido[3,4-e][1,2,4]triazolo[1,5-a]pyrimidine-5(4H)-one] | 1000 to 10000 nM | 1000 to 10000 nM
CCc1ccc(Cn2c(=O)c3c(n4ccnc24)CCN(Cc2cccc(C)c2)C3)cc1 [Compound I-140, 7-(3-methylbenzyl)-4-(4-ethylbenzyl)-6,7,8,9-tetrahydroimidazo[1,2-a]pyrido[3,4-e]pyrimidine-5(4H)-one] | < 1000 nM | < 1000 nM
COc1cccc(Cn2c(=O)c3c(c4cccnc42)CCN(Cc2ccccc2)C3)c1 [Compound I-51, 3-benzyl-6-(3-methoxybenzyl)-2,3,4,6-tetrahydropyrido[3,4-c][1,8]naphthyridine-5-(1H)-one] | < 1000 nM | < 1000 nM
O=c1c2c(n3nccc3n1Cc1ccc(Cl)cc1)CCN(Cc1cccc(Cl)c1)C2 [Compound I-162, 4-(4-chlorobenzyl)-7-(3-chlorobenzyl)-6,7,8,9-tetrahydropyrazolo[1,5-a]pyrido[3,4-e]pyrimidine-5(4H)-one] | 1000 to 10000 nM | 1000 to 10000 nM
O=c1c2c(c3cccnc3n1Cc1cccc(Br)c1)CCN(Cc1ccccc1)C2 [Compound I-48, 3-benzyl-6-(3-bromobenzyl)-2,3,4,6-tetrahydropyrido[3,4-c][1,8]naphthyridine-5-(1H)-one] | < 1000 nM | < 1000 nM
Cc1noc(C)c1Cn1c(=O)c2c(c3cccnc31)CCN(Cc1ccccc1)C2 [Compound I-68, 3-benzyl-6-((3,5-dimethylisoxazol-4-yl)methyl)-2,3,4,6-tetrahydropyrido[3,4-c][1,8]naphthyridine-5-(1H)-one] | 1000 to 10000 nM | 10000 to 100000 nM
O=c1c2c(c3cccnc3n1Cc1ccc(Cl)cc1)CCN(Cc1cccc(Br)c1)C2 [Compound I-76, 3-(3-bromobenzyl)-6-(4-chlorobenzyl)-2,3,4,6-tetrahydropyrido[3,4-c][1,8]naphthyridine-5-(1H)-one] | < 1000 nM | < 1000 nM
COc1ccc(Cn2c(=O)c3c(n4ccnc24)CCN(Cc2cccc(Cl)c2)C3)cc1 [Compound I-144, 7-(3-chlorobenzyl)-4-(4-methoxybenzyl)-6,7,8,9-tetrahydroimidazo[1,2-a]pyrido[3,4-e]pyrimidine-5(4H)-one] | < 1000 nM | < 1000 nM
COc1ccccc1Cn1c(=O)c2c(c3cccnc31)CCN(Cc1ccccc1)C2 [Compound I-45, 3-benzyl-6-(2-methoxybenzyl)-2,3,4,6-tetrahydropyrido[3,4-c][1,8]naphthyridine-5-(1H)-one] | < 1000 nM | 1000 to 10000 nM
O=c1c2c(c3cccnc3n1Cc1ccccc1)CCN(Cc1cccc(Cl)c1)C2 [Compound I-13, 6-benzyl-3-(3-chlorobenzyl)-2,3,4,6-tetrahydropyrido[3,4-c][1,8]naphthyridine-5-(1H)-one] | < 1000 nM | < 1000 nM
